25 compounds from patent publication US8735384B2, “Amino heteroaryl compounds as beta-secretase modulators and methods of use” (Amgen Inc., priority 2010, dated 2014) can be followed below.

One experiment addresses BACE1 (Homo sapiens, UniProt P56817). Put plainly: In vitro enzymatic BACE FRET assay. In kind it is biochemical. Particulars: beta secretase enzyme 0.2 nM, FRET substrate 50 nM, pH 4.2; read-out: BACE1 FRET assay (IC50 class). In short, it runs like this: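 Beta-secretase (0.2 nM) was pre-incubated 1 h with serially diluted inhibitor in 0.05 M acetate pH 4.2, 10% DMSO, 100 uM genapol. Then 50 nM quenched peptide FRET substrate was added for 1 h. The reaction was stopped with Tris to neutral pH and fluorescence read ([…]).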

In experiment [1] the test system is Aβ40 in conditioned medium of cells stably expressing Amyloid Precursor Protein (APP). In words: In vitro BACE cell-based assay (HEK cell assay), Aβ40 sandwich ELISA. The conditions noted are these: Homo sapiens, HEK293, 24 h, inhibition of Aβ40, 24 h incubation, read-out: HEK cell assay (IC50 class). In short, it runs like this:
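APP-stably expressing cells (40K/well) grown 24 h, then treated 24 h with 10-point doses from 100 μM or 10 μM top (0.1% DMSO). Secreted Aβ40 quantified by sandwich ELISA (pAb40 capture, biotinylated 6E10 detection, europium time-resolved fluorescence); IC50 from percent inhibition versus concentration.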

Bounds are passed on as bounds.

BACE1, sequence (P56817 46-501, species assumed): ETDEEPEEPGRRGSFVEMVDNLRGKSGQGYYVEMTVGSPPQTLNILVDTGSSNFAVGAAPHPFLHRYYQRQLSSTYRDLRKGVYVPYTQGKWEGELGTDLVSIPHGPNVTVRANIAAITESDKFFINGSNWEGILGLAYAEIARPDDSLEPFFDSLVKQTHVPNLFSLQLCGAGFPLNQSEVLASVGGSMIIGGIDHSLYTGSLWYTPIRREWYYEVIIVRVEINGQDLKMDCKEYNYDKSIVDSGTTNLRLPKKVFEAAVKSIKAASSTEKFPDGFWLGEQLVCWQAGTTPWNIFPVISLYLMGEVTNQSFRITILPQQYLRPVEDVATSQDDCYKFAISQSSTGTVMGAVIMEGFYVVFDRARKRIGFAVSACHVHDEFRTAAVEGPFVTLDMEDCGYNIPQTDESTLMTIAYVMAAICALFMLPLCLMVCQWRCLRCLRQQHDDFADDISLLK

For `Nc1nc2cc(F)c(-c3ccccc3C(=O)N3CCCC3)cc2cc1N1CCOCC1` [Example 140, (2-(2-amino-7-fluoro-3-morpholinoquinolin-6-yl)phenyl)(pyrrolidin-1-yl)methanone], the IC50 at BACE1 lay within 100 to 500 nM; in experiment [1] it was 1010 to 5000 nM.
For `Nc1nc2ccc(-c3cccc(Cl)c3C(=O)N3CCCC3)cc2cc1N1CCOCC1` [Example 141, (2-(2-amino-3-morpholinoquinolin-6-yl)-6-chlorophenyl)(pyrrolidin-1-yl)methanone] the same measures were 1010 to 5000 nM and more than 5000 nM.
For `Nc1nc2ccc(-c3cccc(F)c3C(=O)N3CCCC3)cc2cc1N1CCOCC1` [Example 142, (2-(2-amino-3-morpholinoquinolin-6-yl)-6-fluorophenyl)(pyrrolidin-1-yl)methanone] the same measures were 1010 to 5000 nM and more than 5000 nM.
In the case of `Nc1nc2ccc(-c3c(Cl)cccc3C(=O)N3CCCCC3)cc2cc1N1CCOCC1` [Example 143, (2-(2-amino-3-morpholinoquinolin-6-yl)-3-chlorophenyl)(piperidin-1-yl)methanone], the values for the IC50 (on BACE1; in experiment [1]) were less than 100 nM and 1010 to 5000 nM, respectively.
With `Nc1nc2ccc(-c3c(Cl)cccc3C(=O)N3CCOCC3)cc2cc1N1CCOCC1` [Example 144, (2-(2-amino-3-morpholinoquinolin-6-yl)-3-chlorophenyl)(morpholino)methanone], the IC50 was 100 to 500 nM on BACE1 and 1010 to 5000 nM in experiment [1].
For `Nc1nc2ccc(-c3ccccc3C(=O)OC3CCCC3)cc2cc1N1CCOCC1` [Example 145, cyclopentyl 2-(2-amino-3-morpholinoquinolin-6-yl)benzoate] the same measures were less than 100 nM and 501 to 1000 nM.
On to `Nc1nc2ccc(-c3ccccc3C(=O)N3CCCC3)cc2cc1N1CCOCC1` [Example 146, (2-(2-amino-3-morpholinoquinolin-6-yl)phenyl)(pyrrolidin-1-yl)methanone], for which the IC50 was in the range of 100 to 500 nM at BACE1 and 1010 to 5000 nM in experiment [1].
For `Nc1nc2ccc(-c3ccc(Cl)cc3C(=O)N3CCCC3)cc2cc1N1CCOCC1` [Example 147, (2-(2-amino-3-morpholinoquinolin-6-yl)-5-chlorophenyl)(pyrrolidin-1-yl)methanone] the same measures were 100 to 500 nM and 1010 to 5000 nM.
`Nc1nc2ccc(-c3c(F)cccc3C(=O)N3CCCC3)cc2cc1N1CCOCC1` [Example 148, (2-(2-amino-3-morpholinoquinolin-6-yl)-3-fluorophenyl)(pyrrolidin-1-yl)methanone]: the IC50 on BACE1 lay in the range of 100 to 500 nM; in experiment [1] it was 1010 to 5000 nM.
For the compound `Nc1nc2ccc(-c3ccccc3C(=O)C3CCCC3)cc2cc1N1CCOCC1` [Example 149, (2-(2-amino-3-morpholinoquinolin-6-yl)phenyl)(cyclopentyl)methanone], the IC50 on BACE1 is 100 to 500 nM; in experiment [1] it was more than 5000 nM.
Turning to `Cc1ccc(C(=O)N2CCCC2)c(-c2ccc3nc(N)c(N4CCOCC4)cc3c2)c1` [Example 150, (2-(2-amino-3-morpholinoquinolin-6-yl)-4-methylphenyl)(pyrrolidin-1-yl)methanone], the half-inhibitory concentration (IC50) is less than 100 nM on BACE1 and 100 to 500 nM in experiment [1].
For `Nc1nc2ccc(-c3ccccc3C(=O)c3ccccc3)cc2cc1N1CCOCC1` [Example 151, (2-(2-amino-3-morpholinoquinolin-6-yl)phenyl)(phenyl)methanone] the same measures were 100 to 500 nM and 1010 to 5000 nM.
The corresponding values for `Nc1nc2ccc(-c3ccccc3C(=O)C3CCCCC3)cc2cc1N1CCOCC1` [Example 152, (2-(2-amino-3-morpholinoquinolin-6-yl)phenyl)(cyclohexyl)methanone] are less than 100 nM and 1010 to 5000 nM.
With `CC(C)(C)CC(=O)c1ccccc1-c1ccc2nc(N)c(N3CCOCC3)cc2c1` [Example 153, 1-(2-(2-amino-3-morpholinoquinolin-6-yl)phenyl)-3,3-dimethylbutan-1-one], the IC50 is 100 to 500 nM on BACE1 and more than 5000 nM in experiment [1].
Take `Nc1nc2ccc(-c3cc(Cl)ccc3C(=O)N3CCCC3)cc2cc1N1CCOCC1` [Example 154, (2-(2-amino-3-morpholinoquinolin-6-yl)-4-chlorophenyl)(pyrrolidin-1-yl)methanone]: the figures for the IC50 (at BACE1; in experiment [1]) were less than 100 nM and 501 to 1000 nM, respectively.
The corresponding values for `Nc1nc2ccc(-c3c(C(=O)N4CCCC4)cccc3C(F)(F)F)cc2cc1N1CCOCC1` [Example 155, (2-(2-amino-3-morpholinoquinolin-6-yl)-3-(trifluoromethyl)phenyl)(pyrrolidin-1-yl)methanone] are 100 to 500 nM and 1010 to 5000 nM.
For the compound `Nc1nc2ccc(-c3ccccc3C(=O)CC3CCCC3)cc2cc1N1CCOCC1` [Example 156, 1-(2-(2-amino-3-morpholinoquinolin-6-yl)phenyl)-2-cyclopentylethanone], the figures for the IC50 (on BACE1; in experiment [1]) were less than 100 nM and 1010 to 5000 nM, respectively.
The corresponding values for `Cc1cccc(C(=O)c2ccccn2)c1-c1ccc2nc(N)c(N3CCOCC3)cc2c1` [Example 157, (2-(2-amino-3-morpholinoquinolin-6-yl)-3-methylphenyl)(pyridin-2-yl)methanone] are less than 100 nM and 501 to 1000 nM.
In the case of `Cc1cccc(C(=O)c2nccs2)c1-c1ccc2nc(N)c(N3CCOCC3)cc2c1` [Example 158, (2-(2-amino-3-morpholinoquinolin-6-yl)-3-methylphenyl)(thiazol-2-yl)methanone], the figures for the IC50 (at BACE1; in experiment [1]) were 100 to 500 nM and 1010 to 5000 nM, respectively.
Take `Cc1cccc(C(=O)c2ncccc2Cl)c1-c1ccc2nc(N)c(N3CCOCC3)cc2c1` [Example 159, (2-(2-amino-3-morpholinoquinolin-6-yl)-3-methylphenyl)(3-chloropyridin-2-yl)methanone]: the IC50 on BACE1 is less than 100 nM; in experiment [1] it was 501 to 1000 nM.
`CC(C)(C)C#Cc1ccccc1-c1ccc2nc(N)c(N3CCOCC3)cc2c1` [Example 160, 6-(2-(3,3-dimethylbut-1-ynyl)phenyl)-3-morpholinoquinolin-2-amine]: the results for the half-maximal inhibitory concentration (IC50) (at BACE1; in experiment [1]) were 501 to 1000 nM and more than 5000 nM, respectively.
As for `Nc1nc2ccc(-c3c(C#Cc4ccccc4)cccc3C(=O)N3CCCC3)cc2cc1N1CCOCC1` [Example 161, (2-(2-amino-3-morpholinoquinolin-6-yl)-3-(phenylethynyl)phenyl)(pyrrolidin-1-yl)methanone], the IC50 on BACE1 was less than 100 nM; in experiment [1] it was 501 to 1000 nM.
For `Nc1nc2ccc(-c3c(CCc4ccccc4)cccc3C(=O)N3CCCC3)cc2cc1N1CCOCC1` [Example 162, (2-(2-amino-3-morpholinoquinolin-6-yl)-3-phenethylphenyl)(pyrrolidin-1-yl)methanone] the same measures were less than 100 nM and less than 100 nM.
Take `CC(C)(C)CCc1cccc(C(=O)N2CCOCC2)c1-c1ccc2nc(N)c(N3CCOCC3)cc2c1` [Example 163, (2-(2-amino-3-morpholinoquinolin-6-yl)-3-(3,3-dimethylbutyl)phenyl)(morpholino)methanone]: the IC50 (on BACE1; in experiment [1]) was less than 100 nM in each case.
Turning to `CC(C)(C)CCc1cccc(C(=O)N2CCC2)c1-c1ccc2nc(N)c(N3CCOCC3)cc2c1` [Example 164, (2-(2-amino-3-morpholinoquinolin-6-yl)-3-(3,3-dimethylbutyl)phenyl)(azetidin-1-yl)methanone], the IC50 (on BACE1; in experiment [1]) was less than 100 nM each time.

What is called IC50 is the concentration that inhibits the measured activity by half.
